Data published in patent publication US20220395472A1 (Dermavant Sciences GmbH, priority 2021, published 2022).

Test system: adults with plaque psoriasis
Assay: Long-term open-label extension study (PSOARING 3): Physician Global Assessment (PGA), treatment episodes, treatment success, remittive effect
Format: in vivo, human
Procedure: This extension study consisted of up to 40 weeks of treatment and a 4 week, safety follow up period.
At the completion of the Week 12 visit of the DB, pivotal Phase 3 study, eligibility of the subjects opting to enroll in this extension study was confirmed. Study visits during the treatment period for all subjects occurred every 4 weeks (±3 days). A phone call was performed at Week 2 (Day 15). Unscheduled visits may have occurred, as needed. Subjects who withdrew from this study before Week 40 returned to the study center for an Early Termination visit. The total duration of this extension study participation was 44 weeks. Subjects in this study were treated as follows based on their PGA score from the Week 12 visit in the DB, pivotal Phase 3 study (Study DMVT 505 3001 or Study DMVT 505 3002).
The PGA was used to assess the primary efficacy endpoint in this study. The PGA is a clinical tool for assessing the current state/severity of a subject's psoriasis at a given time point. It is a static, 5 point, morphological assessment of overall disease severity, as determined by the Investigator, using the clinical characteristics of erythema, scaling, and plaque thickness/elevation as guidelines; higher PGA scores represent more severe disease (0=clear, 1=almost clear, 2=mild, 3=moderate, and 4=severe). The BSA affected was not considered in scoring of the PGA. Variations of the PGA are frequently used in clinical studies because it is a simple assessment, similar to those used in clinical practice. The PGA was performed first, prior to the % BSA, PASI, and LTS assessments.
Time to event parameters, such as the time from treatment success to subsequent worsening (PGA≥2) or duration of treatment episode, were summarized by the Kaplan Meier product limit method using OC.

[1] = Baseline PGA = 3, Tapinarof (Pivotal) group
[2] = Baseline PGA = 3, Vehicle (Pivotal) group
[3] = Baseline PGA = 4, Tapinarof (Pivotal) group
[4] = Baseline PGA = 4, Vehicle (Pivotal) group

With `CC(C)c1c(O)cc(/C=C/c2ccccc2)cc1O` [Tapinarof, 3,5-Dihydroxy-4-isopropyl-trans-stilbene] the “Total Duration of Treatment Success, Mean (SD)” value [1] was 67.3 (54.20) days, the “Total Duration of Treatment Success, Median” value [1] was 56.5 days and the “Average Duration of Episodes, Mean (SD)” value [2] was 174.0 (94.06) days. For the same compound, the “Average Duration of Episodes, Median” value [2] was 195.0 days, the “Average Duration of Treatment Success, Mean (SD)” value [2] was 67.1 (57.99) days and the “Average Duration of Treatment Success, Median” value [2] was 51.0 days. The “Duration of 1st Episode, Mean (SD)” value [2] was 177.1 (92.70) days, the “Duration of 1st Episode, Median” value [2] was 195.5 days and the “Duration of 1st Success, Mean (SD)” value [2] was 70.3 (58.38) days. For the same compound, the “Duration of 1st Success, Median” value [2] was 56.0 days, the “Duration of 2nd Episode, Mean (SD)” value [2] was 56.4 (37.29) days and the “Duration of 2nd Episode, Median” value [2] was 55.5 days. For the same compound, the “Duration of 2nd Success, Mean (SD)” value [2] was 29.2 (18.23) days, the “Duration of 2nd Success, Median” value [2] was 28.0 days and the “Duration of 3rd Episode, Mean (SD)” value [2] was 55.2 (27.44) days. For the same compound, the “Duration of 3rd Episode, Median” value [2] was 57.0 days, the “Duration of 3rd Success, Mean (SD)” value [2] was 28.0 (NE) days and the “Duration of 3rd Success, Median” value [2] was 28.0 days. For the same compound, the “Duration of 4th Episode, Mean (SD)” value [2] was 1.0 (NE) days, the “Duration of 4th Episode, Median” value [2] was 1.0 days and the “Duration of Last Episode, Mean (SD)” value [2] was 171.4 (97.39) days. For the same compound, the “Duration of Last Episode, Median” value [2] was 195.0 days, the “Duration of Last Success, Mean (SD)” value [2] was 63.8 (59.74) days and the “Duration of Last Success, Median” value [2] was 49.0 days. The “Total Duration of Treatment Episodes, Mean (SD)” value [2] was 186.1 (87.86) days, the “Total Duration of Treatment Episodes, Median” value [2] was 197.5 days and the “Total Duration of Treatment Success, Mean (SD)” value [2] was 77.4 (58.26) days. For the same compound, the “Total Duration of Treatment Success, Median” value [2] was 81.0 days, the “Average Duration of Episodes, Mean (SD)” value (Baseline PGA = 4, Overall) was 187.5 (102.01) days and the “Average Duration of Episodes, Median” value (Baseline PGA = 4, Overall) was 225.0 days. For the same compound, the “Average Duration of Treatment Success, Mean (SD)” value (Baseline PGA = 4, Overall) was 104.5 (56.36) days, the “Average Duration of Treatment Success, Median” value (Baseline PGA = 4, Overall) was 93.0 days and the “Duration of 1st Episode, Mean (SD)” value (Baseline PGA = 4, Overall) was 187.4 (102.04) days. For the same compound, the “Duration of 1st Episode, Median” value (Baseline PGA = 4, Overall) was 225.0 days, the “Duration of 1st Success, Mean (SD)” value (Baseline PGA = 4, Overall) was 104.5 (56.36) days and the “Duration of 1st Success, Median” value (Baseline PGA = 4, Overall) was 93.0 days. For the same compound, the “Duration of 2nd Episode, Mean (SD)” value (Baseline PGA = 4, Overall) was 85.0 (NE) days, the “Duration of 2nd Episode, Median” value (Baseline PGA = 4, Overall) was 85.0 days and the “Duration of Last Episode, Mean (SD)” value (Baseline PGA = 4, Overall) was 187.5 (101.99) days. For the same compound, the “Duration of Last Episode, Median” value (Baseline PGA = 4, Overall) was 225.0 days, the “Duration of Last Success, Mean (SD)” value (Baseline PGA = 4, Overall) was 104.5 (56.36) days and the “Duration of Last Success, Median” value (Baseline PGA = 4, Overall) was 93.0 days. The “Total Duration of Treatment Episodes, Mean (SD)” value (Baseline PGA = 4, Overall) was 191.1 (99.63) days, the “Total Duration of Treatment Episodes, Median” value (Baseline PGA = 4, Overall) was 225.0 days and the “Total Duration of Treatment Success, Mean (SD)” value (Baseline PGA = 4, Overall) was 104.5 (56.36) days. For the same compound, the “Total Duration of Treatment Success, Median” value (Baseline PGA = 4, Overall) was 93.0 days, the “Average Duration of Episodes, Mean (SD)” value [3] was 132.9 (100.39) days and the “Average Duration of Episodes, Median” value [3] was 113.0 days. For the same compound, the “Average Duration of Treatment Success, Mean (SD)” value [3] was 119.5 (79.90) days, the “Average Duration of Treatment Success, Median” value [3] was 119.5 days and the “Duration of 1st Episode, Mean (SD)” value [3] was 132.9 (100.39) days. The “Duration of 1st Episode, Median” value [3] was 113.0 days, the “Duration of 1st Success, Mean (SD)” value [3] was 119.5 (79.90) days and the “Duration of 1st Success, Median” value [3] was 119.5 days. For the same compound, the “Duration of Last Episode, Mean (SD)” value [3] was 132.9 (100.39) days, the “Duration of Last Episode, Median” value [3] was 113.0 days and the “Duration of Last Success, Mean (SD)” value [3] was 119.5 (79.90) days. For the same compound, the “Duration of Last Success, Median” value [3] was 119.5 days, the “Total Duration of Treatment Episodes, Mean (SD)” value [3] was 132.9(100.39) days and the “Total Duration of Treatment Episodes, Median” value [3] was 113.0 days. The “Total Duration of Treatment Success, Mean (SD)” value [3] was 119.5 (79.90) days, the “Total Duration of Treatment Success, Median” value [3] was 119.5 days and the “Average Duration of Episodes, Mean (SD)” value [4] was 211.3 (96.08) days. The “Average Duration of Episodes, Median” value [4] was 267.0 days, the “Average Duration of Treatment Success, Mean (SD)” value [4] was 89.5 (47.38) days and the “Average Duration of Treatment Success, Median” value [4] was 89.5 days. The “Duration of 1st Episode, Mean (SD)” value [4] was 211.3 (96.13) days, the “Duration of 1st Episode, Median” value [4] was 267.0 days and the “Duration of 1st Success, Mean (SD)” value [4] was 89.5 (47.38) days. The “Duration of 1st Success, Median” value [4] was 89.5 days, the “Duration of 2nd Episode, Mean (SD)” value [4] was 85.0 (NE) days and the “Duration of 2nd Episode, Median” value [4] was 85.0 days. For the same compound, the “Duration of Last Episode, Mean (SD)” value [4] was 211.4 (96.04) days, the “Duration of Last Episode, Median” value [4] was 267.0 days and the “Duration of Last Success, Mean (SD)” value [4] was 89.5 (47.38) days. For the same compound, the “Duration of Last Success, Median” value [4] was 89.5 days, the “Total Duration of Treatment Episodes, Mean (SD)” value [4] was 216.6 (90.82) days and the “Total Duration of Treatment Episodes, Median” value [4] was 267.0 days. The “Total Duration of Treatment Success, Mean (SD)” value [4] was 89.5 (47.38) days, the “Total Duration of Treatment Success, Median” value [4] was 89.5 days and the “PGA 0 - Clear” value (Baseline, Overall) was 78 (10.3) n (%). The “PGA 1 - Almost Clear” value (Baseline, Overall) was 161 (21.2) n (%) and the “PGA 2 - Mild” value (Baseline, Overall) was 248 (32.7) n (%).
